# Active and inactive are the calls of the source. The calls are words filed in the database; no cut-off is given here.
# Key:
# Platelet [1] = assay: Antiplatelet activity in human platelet on collagen-coated surface assessed as shear rate pre-incubated at 0.5 mM measured after 3 hrs by fluorescent microscopy (reference value: 100 =/- 7%); assay type: functional
# Mus musculus [2] = assay: Antithrombotic activity in calcein-labelled platelet-mediated ferric chloride-induced arterial injury thrombosis C57BL/6J mouse model assessed as thrombus length at 100 mg/kg, po administrated twice a day measured upto 7 days (reference value: 4.4 +/- 0.4 mm); assay type: functional; details: time day <=7
# [3] = Toxicity against C57BL/6J mouse assessed as lungs morphology at 200 mg/kg twice a day measured after 60 days; assay type: organism-based; details: in vivo, 1440 h, time 60 day
# [4] = Toxicity against diabetic C57BL/6J mouse assessed hypoglycemic activity at 200 mg/kg twice a day measured after 60 days relative to parent compound; assay type: organism-based; details: in vivo, 1440 h, time 60 day
# Mus musculus [5] = assay: Antithrombotic activity in calcein-labelled platelet-mediated ferric chloride-induced arterial injury thrombosis C57BL/6J mouse model assessed as average time to occlusive thrombosis at 100 mg/kg, po administrated twice a day measured upto 7 days (reference value: 7.9 +/- 0.7 min); assay type: functional; details: time day <=7
# [6] = Toxicity in C57BL/6J mouse assessed as change in glucose level at 200 mg/kg twice daily for 60 days relative to control; assay type: organism-based; details: in vivo, 1440 h, time 60 day
# Mus musculus [7] = assay: Antithrombotic activity in calcein-labelled platelet-mediated ferric chloride-induced arterial injury thrombosis C57BL/6J mouse model assessed as average time to occlusive thrombosis at 50 mg/kg, po administrated twice a day measured upto 7 days (reference value: 7.9 +/- 0.7 min); assay type: functional; details: time day <=7
# Mus musculus [8] = assay: Antithrombotic activity in transient focal cerebral ischemic mouse model occlusion induced 60 mins of the right middle cerebral artery followed by reperfussion 23 hrs assessed as decrease in mortality rate at 200 mg/kg, po twice daily for 7 days […]; assay type: functional, organism-based; details: time 7.0 day
# [9] = Inhibition of thrombin-stimulated human platelet aggregation by measuring aggregation at 0.05 mM measured after 3 hrs by scanning electron microscopy (Rvb= 87.2 +/- 4.0%); assay type: functional; set-up: scale not given: the % may be the effect or the level left
# [10] = Toxicity in calcein-labelled platelet-mediated ferric chloride-induced arterial injury thrombosis po dosed C57BL/6J mouse model assessed as change in coagulation factor II treated twice a day measured upto 7 days; assay type: organism-based; details: in vivo, 50 mg/kg, 168 h, time <=7 day
# [11] = Suppression of glycoprotein IIb/IIIa activation in thrombin-stimulated human platelets by measuring activated GPIIb/IIIa at 0.01 mM measured after 3 hrs by PAC-1-FITC dye based flow cytometry (reference value: 90.1%); assay type: functional; details: Platelet
# [12] = Inhibition of thrombin-stimulated human platelet aggregation by measuring aggregation at 0.01 mM measured after 3 hrs by scanning electron microscopy (Rvb= 87.2 +/- 4.0%); assay type: functional; set-up: scale not given: the % may be the effect or the level left
# [13] = Toxicity against C57BL/6J mouse assessed as spleen morphology at 200 mg/kg twice a day measured after 60 days; assay type: organism-based; details: in vivo, 1440 h, time 60 day
# [14] = Toxicity in C57BL/6J mouse assessed as change in creatinine level at 200 mg/kg twice daily for 60 days relative to control; assay type: organism-based; details: in vivo, 1440 h, time 60 day
# [15] = Suppression of glycoprotein IIb/IIIa activation in thrombin-stimulated human platelets by measuring activated GPIIb/IIIa at 0.10 mM measured after 3 hrs by PAC-1-FITC dye based flow cytometry (reference value: 90.1%); assay type: functional; details: Platelet, at 0.1 mM
# [16] = Inhibition of thrombin-induced platelet aggregation in mouse platelet isolated from C57BL/6J mouse treated at 200 mg/kg, ig twice a day for 7 days by lumi-aggregometer; assay type: functional; details: po, 168 h, time 7 day
# Mus musculus [17] = assay: Antithrombotic activity in calcein-labelled platelet-mediated ferric chloride-induced arterial injury thrombosis C57BL/6J mouse model assessed as thrombus weight at 200 mg/kg, po administrated twice a day measured upto 7 days (reference value: 3.3 +/- 0.3 mg); assay type: functional; details: time day <=7
# [18] = Suppression of glycoprotein IIb/IIIa activation in thrombin-stimulated human platelets by measuring activated GPIIb/IIIa at 1 mM measured after 3 hrs by PAC-1-FITC dye based flow cytometry (reference value: 90.1%); assay type: functional; details: Platelet
# [19] = Toxicity in C57BL/6J mouse assessed as change in platelet count at 200 mg/kg twice daily for 60 days relative to control; assay type: organism-based; details: in vivo, 1440 h, time 60 day
# [20] = Toxicity in C57BL/6J mouse assessed as change in platelet distribution width at 200 mg/kg twice daily for 60 days relative to control; assay type: organism-based; details: in vivo, 1440 h, time 60 day
# [21] = Toxicity in C57BL/6J mouse assessed as change in mean platelet volume at 200 mg/kg twice daily for 60 days relative to control; assay type: organism-based; details: in vivo, 1440 h, time 60 day
# [22] = Toxicity in C57BL/6J mouse assessed as change in thrombo-cytocrit at 200 mg/kg twice daily for 60 days relative to control; assay type: organism-based; details: in vivo, 1440 h, time 60 day
# [23] = Suppression of P-selectin expression in thrombin-stimulated human platelets by measuring CD62P positive platelets at 0.05 mM after 3 hrs by flow cytometry analysis (reference value: 78.2%); assay type: functional; details: Platelet
# [24] = Cmax in Sprague-Dawley rat at 200 mg/kg, po compound dissolved in DMSO measured after 2 hr by HPLC-MS/MS analysis; assay type: ADME, organism-based; set-up: route oral, time 2 hrs, dose 200 mg/kg; details: in vivo
# [25] = Toxicity against C57BL/6J mouse assessed as liver morphology at 200 mg/kg twice a day measured after 60 days; assay type: organism-based; details: in vivo, 1440 h, time 60 day
# [26] = Suppression of P-selectin expression in thrombin-stimulated human platelets by measuring CD62P positive platelets at 0.10 mM after 3 hrs by flow cytometry analysis (reference value: 78.2%); assay type: functional; details: Platelet, at 0.1 mM
# Mus musculus [27] = assay: Antithrombotic activity in transient focal cerebral ischemic mouse model occlusion induced 60 mins of the right middle cerebral artery followed by reperfussion 23 hrs assessed as improve in damaged neural function at 200 mg/kg, po twice daily for 7 days; assay type: functional, organism-based; details: time 7.0 day
# [28] = Toxicity against C57BL/6J mouse assessed as effect on blood lactic acid at 200 mg/kg twice a day measured after 60 days; assay type: organism-based; details: in vivo, 1440 h, time 60 day
# [29] = Inhibition of thrombin-stimulated human platelet aggregation by measuring aggregation at 0.50 mM measured after 3 hrs by scanning electron microscopy (Rvb= 87.2 +/- 4.0%); assay type: functional; set-up: scale not given: the % may be the effect or the level left; details: dose 0.5 mM
# [30] = Toxicity in calcein-labelled platelet-mediated ferric chloride-induced arterial injury thrombosis po dosed C57BL/6J mouse model assessed as change in activated partial thromboplastin time treated twice a day measured upto 7 days; assay type: organism-based; details: in vivo, 168 h, time <=7 day
# Platelet [31] = assay: Cytotoxicity against human platelet assessed as extracellular LDH levels changes at 1 mM incubated for 1 hrs; assay type: cell-based; details: 1000 µM
# [32] = Inhibition of thrombin-stimulated human platelet aggregation by measuring aggregation at 0.50 mM measured after 3 hrs by scanning electron microscopy; assay type: functional; set-up: scale not given: the % may be the effect or the level left; details: dose 0.5 mM
# [33] = Apparent clearance during terminal phase in Sprague-Dawley rat at 200 mg/kg, po measured by HPLC-MS/MS analysis; assay type: ADME, organism-based; details: in vivo
# [34] = Suppression of glycoprotein IIb/IIIa activation in thrombin-stimulated human platelets by measuring activated GPIIb/IIIa at 0.05 mM measured after 3 hrs by PAC-1-FITC dye based flow cytometry (reference value: 90.1%); assay type: functional; details: Platelet
# [35] = Toxicity in C57BL/6J mouse assessed as change in blood urea nitrogen level at 200 mg/kg twice daily for 60 days relative to control; assay type: organism-based; details: in vivo, 1440 h, time 60 day
structure (smiles),measurement,setting,value
CN(C)C(=N)NC(=N)NS(=O)(=O)C(F)(F)F,Activity,Platelet [1],37%
same,Activity,Mus musculus [2],2.8 mm
same,Activity,[3],Non-Toxic
same,Activity,[4],Non-Toxic
same,Time,Mus musculus [5],15.1 min
same,Activity,[6],Non-Toxic
same,Time,Mus musculus [7],10.1 min
same,Activity,Mus musculus [8],Active
same,Activity,[9],62.2%
same,Activity,[10],Non-Toxic
same,"level, % of control at 10 µM",[11],84.2%
same,Activity,[12],75.9%
same,Activity,[13],Non-Toxic
same,Activity,[14],Non-Toxic
same,"level, % of control at 100 µM",[15],44.5%
same,inhibition in vivo at 200 mg/kg,[16],71.5%
same,Activity,Mus musculus [17],0.4 mg
same,"level, % of control at 1000 µM",[18],37.2%
same,Activity,[19],Non-Toxic
same,Activity,[20],Non-Toxic
same,Activity,[21],Non-Toxic
same,Activity,[22],Non-Toxic
same,"level, % of control at 50 µM",[23],58.9%
same,Cmax,[24],24300 ng/mL
same,Activity,[25],Non-Toxic
same,"level, % of control at 100 µM",[26],54.7%
same,Activity,Mus musculus [27],Active
same,Activity,[28],Non-Toxic
same,Activity,[29],21%
same,Activity,[30],Non-Toxic
same,Activity,Platelet [31],Non-Toxic
same,Activity,[32],21%
same,CLz/F,[33],16.6 mL/min/kg
same,"level, % of control at 50 µM",[34],74.3%
same,Activity,[35],Non-Toxic

# Reference: ChEMBL document CHEMBL4765340, “Novel potent antiplatelet thrombotic agent derived from biguanide for ischemic stroke” (Eur J Med Chem, 2020)
